Experimental data as given in patent US11939305B1, “Ethyl 2-(5-(3-fluorophenyl)-4-phenyl-4H-1,2,4-triazol-3-ylthio)acetate as an antimicrobial compound” (KING FAISAL UNIVERSITY, priority 2023, dated 2024).

Assays:
Format in all cases: cell-based
Staphylococcus aureus = assay: Agar plate disc-diffusion, antibacterial inhibition zone
Protocol: (§1) The agar plate disc-diffusion method was applied. […] The discs were then placed onto the surface of agar plates (nutrient agar for bacteria and Sabouraud's dextrose agar for fungi) seeded with the test organism. Each plate contained 15 mL of the agar medium, previously seeded with 0.2 mL of the broth culture of each organism pregrown for 18 hours. The plates were incubated at 37° C. for 48 hours, and 72 hours for fungi. The inhibition zones were measured in mm. Discs impregnated with DMSO were used as a control, and its inhibition zone was subtracted from the tested compound actual inhibition zone.

Pseudomonas aeruginosa = assay: as above
Protocol: as §1

Bacillus cereus = assay: as above
Protocol: as §1

Escherichia coli = assay: as above
Protocol: as §1

[1] = system: Chrysosporium keratinophilum; assay: Agar plate disc-diffusion, antifungal inhibition zone
Protocol: as §1

Aspergillus flavus = assay: as above
Protocol: as §1

different microbes = assay: Antimicrobial screening, overall statement; conditions: against different microbes (bacteria and fungi of Tables 1 and 2)
Protocol: The agar plate disc-diffusion method was applied. Sterilized filter papers (6 mm in diameter) were wetted with 10 μL of a solution of ethyl 2-(5-(3-fluorophenyl)-4-phenyl-4H-1,2,4-triazol-3-ylthio)acetate (III) to be tested, containing 10 mg/mL in DMSO, and the discs were allowed to air dry. The discs were then placed onto the surface of agar plates (nutrient agar for bacteria and Sabouraud's dextrose agar for fungi) seeded with the test organism. Each plate contained 15 mL of the agar medium, previously seeded with 0.2 mL of the broth culture of each organism pregrown for 18 hours. The plates were incubated at 37° C. for 48 hours, and 72 hours for fungi. The inhibition zones were measured in mm. Discs impregnated with DMSO were used as a control, and its inhibition zone was subtracted from the tested compound actual inhibition zone.

[2] = A = concentration of comp. = 10,000 μL
[3] = B = concentration of comp. = 30,000 μL
[4] = C = concentration of comp. = 50,000 μL

Row | SMILES | inhibition zone (Staphylococcus aureus; [2]) [mm] | inhibition zone (Staphylococcus aureus; [3]) [mm] | inhibition zone (Staphylococcus aureus; [4]) [mm] | inhibition zone (Pseudomonas aeruginosa; [2]) [mm] | inhibition zone (Pseudomonas aeruginosa; [3]) [mm] | inhibition zone (Pseudomonas aeruginosa; [4]) [mm] | inhibition zone (Bacillus cereus; [2]) [mm] | inhibition zone (Bacillus cereus; [3]) [mm] | inhibition zone (Bacillus cereus; [4]) [mm] | inhibition zone (Escherichia coli; [2]) [mm] | inhibition zone (Escherichia coli; [3]) [mm] | inhibition zone (Escherichia coli; [4]) [mm] | inhibition zone [1, 2] [mm] | inhibition zone [1, 3] [mm] | inhibition zone [1, 4] [mm] | inhibition zone (Aspergillus flavus; [2]) [mm] | inhibition zone (Aspergillus flavus; [3]) [mm] | inhibition zone (Aspergillus flavus; [4]) [mm] | antimicrobial activity (in words) (different microbes)
1 | O=C(O)c1cn(C2CC2)c2cc(N3CCNCC3)c(F)cc2c1=O [Cip., ciprofloxacin, reference compound] | 43 | 44 | 53 | 29 | 30 | 53 | 29 | 30 | 42 | 30 | 39 | 60 | 29 | 30 | 53 | 29 | 30 | 42 | 
2 | CCOC(=O)CSc1nnc(-c2cccc(F)c2)n1-c1ccccc1 [III, ethyl 2-(5-(3-fluorophenyl)-4-phenyl-4H-1,2,4-triazol-3-ylthio)acetate] | 18 | 21 | 30 | 25 | 26 | 44 | 24 | 27 | 39 | 26 | 34 | 50 | 25 | 29 | 47 | 20 | 23 | 29 | excellent antimicrobials activities
